In patent publication US20230265151A1, “GIP/GLP1 CO-AGONIST COMPOUNDS” (priority 2020, published 2023):
Read-outs that look alike come from different tables or passages of the source. *1 amine or outer side, *2 acyl side, *3 side chain or, on linkers, in order; H or OH if unused. Where a SMILES comes first, the peptide text is derived from it. Side-chain parts run from the residue outwards. [ ]: non-standard residue; d: D form. The star is where a group is joined. Decanoyl(10-(4-HOOC-PhO)) = O=C(O)c1ccc(OCCCCCCCCCC(=O)*)cc1; αMePhe(2-F) = C[C@](N)(Cc1ccccc1F)C(=O)O; γGlu = O=C(O)[C@H](CCC(=O)[*:2])N[*:1]; C14 diacid = O=C(O)CCCCCCCCCCCCC(=O)*; αMeY = C[C@](N)(Cc1ccc(O)cc1)C(=O)O; αMeL = CC(C)C[C@](C)(N)C(=O)O; Orn = NCCC[C@H](N)C(=O)O; AEEA = NCCOCCOCC(=O)O; Aib = CC(C)(N)C(=O)O

Experiments:
Format in all cases: cell-based
hGIPR = target: T1, hGIPR (Homo sapiens, UniProt P48546); assay: Functional cAMP formation (HTRF) in HEK-293 clonal cells expressing hGIPR, 0.1% bovine casein, without or with 1.0% human serum albumin; conditions: for Emax: percent of maximal response to GIP(1-42)NH2; for EC50: cAMP, 0.1% bovine casein (no human serum albumin), geometric mean
T1 construct: expressed in transfected cells
T1 sequence (P48546 22-466): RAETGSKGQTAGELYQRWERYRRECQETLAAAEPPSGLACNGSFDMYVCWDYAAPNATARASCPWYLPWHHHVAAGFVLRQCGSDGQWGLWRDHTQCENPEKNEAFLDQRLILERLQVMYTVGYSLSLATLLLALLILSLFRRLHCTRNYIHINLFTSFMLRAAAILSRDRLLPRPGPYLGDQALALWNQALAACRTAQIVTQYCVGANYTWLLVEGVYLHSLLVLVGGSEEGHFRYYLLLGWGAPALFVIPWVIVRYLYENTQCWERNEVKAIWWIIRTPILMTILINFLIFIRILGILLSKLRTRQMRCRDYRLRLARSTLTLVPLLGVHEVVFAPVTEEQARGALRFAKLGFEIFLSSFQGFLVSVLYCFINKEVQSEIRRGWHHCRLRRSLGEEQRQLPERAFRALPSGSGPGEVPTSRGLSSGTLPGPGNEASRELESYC
Outline: (§1)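 Cells were stimulated with peptide for 30 min at 37° C, then intracellular cAMP was measured by competitive HTRF (665/620 nm ratio) and converted to nM using a cAMP standard curve. Relative EC50 and Emax came from four-parameter logistic fits of percent maximal response against peptide concentration.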

hGCGR = target: T2, hGCGR (Homo sapiens, UniProt P47871); assay: Functional cAMP formation (HTRF) in HEK-293 clonal cells expressing hGCGR, 0.1% bovine casein, without or with 1.0% human serum albumin; conditions: cAMP, 37° C.
T2 construct: expressed in transfected cells
Outline: as §1

hGLP-1R = hGLP-1R (Homo sapiens, UniProt P43220); assay: Functional cAMP formation (HTRF) in HEK-293 clonal cells expressing hGLP-1R, 0.1% bovine casein, without or with 1.0% human serum albumin; design: expressed in transfected cells; conditions: for Emax: percent of maximal response to GLP-1(7-36)NH2; for EC50: cAMP
Outline: as §1

[1] = HEK293, cAMP, 37° C., 0.1% bovine casein and 1.0% human serum albumin, read-out: hGIPR Emax, % ± SEM
[2] = HEK293, cAMP, 37° C., 0.1% bovine casein, arithmetic mean, read-out: hGIPR Emax, % ± SEM
[3] = 37° C., read-out: hGIPR EC50, nM (SEM, n)
[4] = 0.1% bovine casein (no human serum albumin), geometric mean, read-out: hGCGR EC50, nM (SEM, n)
[5] = 0.1% bovine casein and 1.0% human serum albumin, geometric mean (SEM, n), read-out: hGCGR EC50, nM (SEM, n)
[6] = HEK293, cAMP, 37° C., 0.1% bovine casein and 1.0% human serum albumin, read-out: hGLP-1R Emax, % ± SEM
[7] = 37° C., 0.1% bovine casein (no human serum albumin), geometric mean, read-out: hGLP-1R EC50, nM (SEM, n)
[8] = HEK293, cAMP, 37° C., 0.1% bovine casein, arithmetic mean, read-out: hGLP-1R Emax, % ± SEM

Chain of hGLP-1R (P43220 24-463): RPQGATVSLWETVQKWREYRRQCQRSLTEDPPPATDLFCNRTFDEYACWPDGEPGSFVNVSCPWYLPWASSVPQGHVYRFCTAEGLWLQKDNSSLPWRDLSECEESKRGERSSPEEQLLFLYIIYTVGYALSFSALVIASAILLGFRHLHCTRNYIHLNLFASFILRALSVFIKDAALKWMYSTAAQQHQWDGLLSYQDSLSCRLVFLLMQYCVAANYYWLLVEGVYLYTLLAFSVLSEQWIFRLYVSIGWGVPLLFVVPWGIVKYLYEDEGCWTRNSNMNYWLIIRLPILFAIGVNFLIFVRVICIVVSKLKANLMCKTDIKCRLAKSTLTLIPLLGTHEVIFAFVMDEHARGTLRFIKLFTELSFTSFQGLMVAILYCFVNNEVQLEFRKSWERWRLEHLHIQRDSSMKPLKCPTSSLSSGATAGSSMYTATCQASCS
T2 sequence (P47871 26-477): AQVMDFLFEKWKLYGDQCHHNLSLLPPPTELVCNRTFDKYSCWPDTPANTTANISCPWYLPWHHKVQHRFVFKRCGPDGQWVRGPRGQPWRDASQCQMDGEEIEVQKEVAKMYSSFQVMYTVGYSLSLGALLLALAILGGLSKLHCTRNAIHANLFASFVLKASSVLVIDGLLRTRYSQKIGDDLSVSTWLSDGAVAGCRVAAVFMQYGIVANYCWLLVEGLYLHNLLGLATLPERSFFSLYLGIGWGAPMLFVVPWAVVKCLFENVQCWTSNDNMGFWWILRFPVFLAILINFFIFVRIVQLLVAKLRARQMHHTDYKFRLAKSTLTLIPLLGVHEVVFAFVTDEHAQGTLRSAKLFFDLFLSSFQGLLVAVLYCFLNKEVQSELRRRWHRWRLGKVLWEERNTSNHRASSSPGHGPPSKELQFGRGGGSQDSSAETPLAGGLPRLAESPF

SMILES	Emax (hGIPR; [1])	Emax (hGIPR; [2])	EC50 (hGIPR; [3])	EC50 (hGCGR; [4])	EC50 (hGCGR; [5])	Emax (hGLP-1R; [6])	EC50 (hGLP-1R; [7])	EC50 (hGLP-1R; 37° C., 0.1% bovine casein and 1.0% human serum albumin, geometric mean (SEM, n), read-out: hGLP-1R EC50, nM (SEM, n))	Emax (hGLP-1R; [8])	Emax (hGIPR; HEK293, read-out: hGIPR Emax, % ± SEM, cAMP, 37° C., 0.1% bovine casein and 1.0% human serum albumin)	Emax (hGIPR; HEK293, read-out: hGIPR Emax, % ± SEM, cAMP, 37° C., 0.1% bovine casein, arithmetic mean)	EC50 (hGIPR; hGIPR EC50, nM (SEM, n), 37° C.)	EC50 (hGCGR; hGCGR EC50, nM (SEM, n), 0.1% bovine casein (no human serum albumin), geometric mean)	EC50 (hGCGR; hGCGR EC50, nM (SEM, n), 0.1% bovine casein and 1.0% human serum albumin, geometric mean (SEM, n))	Emax (hGLP-1R; HEK293, read-out: hGLP-1R Emax, % ± SEM, cAMP, 37° C., 0.1% bovine casein and 1.0% human serum albumin)	EC50 (hGLP-1R; hGLP-1R EC50, nM (SEM, n), 37° C., 0.1% bovine casein (no human serum albumin), geometric mean)
CC[C@H](C)[C@H](NC(=O)[C@H](CC(C)C)NC(=O)[C@](C)(Cc1ccc(O)cc1)NC(=O)[C@@H](CCC(=O)O)NC(=O)[C@@H](NC(=O)[C@H](Cc1ccccc1)NC(=O)[C@H](CCCN)NC(=O)C(C)(C)NC(=O)[C@H](CCC(N)=O)NC(=O)[C@H](C)NC(=O)[C@H](CCCCNC(=O)COCCOCCNC(=O)COCCOCCNC(=O)CC[C@H](NC(=O)CCCCCCCCCCCCC(=O)O)C(=O)O)NC(=O)[C@H](CCCN)NC(=O)[C@H](CC(=O)O)NC(=O)[C@H](CC(C)C)NC(=O)[C@](C)(CC(C)C)NC(=O)[C@@H](NC(=O)C(C)(C)NC(=O)[C@H](Cc1ccncc1)NC(=O)[C@H](CC(=O)O)NC(=O)[C@H](CO)NC(=O)[C@@H](NC(=O)[C@](C)(Cc1ccccc1F)NC(=O)[C@@H](NC(=O)CNC(=O)[C@H](CCC(=O)O)NC(=O)C(C)(C)NC(=O)[C@@H](N)Cc1ccc(O)cc1)[C@@H](C)O)[C@@H](C)O)[C@@H](C)CC)[C@@H](C)CC)C(=O)N[C@@H](CCCCNC(=O)COCCOCCNC(=O)COCCOCCNC(=O)CC[C@H](NC(=O)CCCCCCCCCCCCC(=O)O)C(=O)O)C(=O)NCC(=O)NCC(=O)N1CCC[C@H]1C(=O)N[C@@H](CO)C(=O)N[C@@H](CO)C(=O)NCC(=O)N[C@@H](C)C(=O)N1CCC[C@H]1C(=O)N1CCC[C@H]1C(=O)N1CCC[C@H]1C(=O)N[C@@H](CO)C(N)=O [Example 348]	79.3%	95.9%	0.0228 nM	> 9950 nM	> 9950 nM	98%	0.805 nM	8.95 nM	–	–	–	–	–	–	–	–
CC[C@H](C)[C@H](NC(=O)[C@H](CC(C)C)NC(=O)[C@](C)(Cc1ccc(O)cc1)NC(=O)[C@@H](CCC(=O)O)NC(=O)[C@@H](NC(=O)[C@H](Cc1ccccc1)NC(=O)[C@H](CCCN)NC(=O)C(C)(C)NC(=O)[C@H](CCC(N)=O)NC(=O)[C@H](C)NC(=O)[C@H](CCCCNC(=O)COCCOCCNC(=O)COCCOCCNC(=O)CC[C@H](NC(=O)CCCCCCCCCCCCC(=O)O)C(=O)O)NC(=O)[C@H](CCCN)NC(=O)[C@H](CC(=O)O)NC(=O)[C@H](CC(C)C)NC(=O)[C@](C)(CC(C)C)NC(=O)[C@@H](NC(=O)C(C)(C)NC(=O)[C@H](Cc1ccc(O)cc1)NC(=O)[C@H](CC(=O)O)NC(=O)[C@H](CO)NC(=O)[C@@H](NC(=O)[C@](C)(Cc1ccccc1F)NC(=O)[C@@H](NC(=O)CNC(=O)[C@H](CCC(=O)O)NC(=O)C(C)(C)NC(=O)[C@@H](N)Cc1ccc(O)cc1)[C@@H](C)O)[C@@H](C)O)[C@@H](C)CC)[C@@H](C)CC)C(=O)N[C@@H](CCCCNC(=O)COCCOCCNC(=O)COCCOCCNC(=O)CC[C@H](NC(=O)CCCCCCCCCCCCC(=O)O)C(=O)O)C(=O)NCC(=O)NCC(=O)N1CCC[C@H]1C(=O)N[C@@H](CO)C(=O)N[C@@H](CO)C(=O)NCC(=O)N[C@@H](C)C(=O)N1CCC[C@H]1C(=O)N1CCC[C@H]1C(=O)N1CCC[C@H]1C(=O)N[C@@H](CO)C(N)=O [Example 349] (H-Y[Aib]EGT[αMePhe(2-F)]TSDY[Aib]I[αMeL]LD[Orn]K([AEEA-AEEA-γGlu-C14 diacid])AQ[Aib][Orn]FI[dE][αMeY]LIK([AEEA-AEEA-γGlu-C14 diacid])GGPSSGAPPPS-NH2; N-terminus assumed)	79.3%	95.9%	0.015 nM	> 9950 nM	> 9950 nM	94.3%	0.334 nM	–	99%	–	–	–	–	–	–	–
CC[C@H](C)[C@H](NC(=O)[C@H](CC(C)C)NC(=O)[C@](C)(Cc1ccc(O)cc1)NC(=O)[C@@H](CCC(=O)O)NC(=O)[C@@H](NC(=O)[C@H](Cc1ccccc1)NC(=O)[C@H](CCCN)NC(=O)C(C)(C)NC(=O)[C@H](CCC(N)=O)NC(=O)[C@H](C)NC(=O)[C@H](CCCCNC(=O)COCCOCCNC(=O)COCCOCCNC(=O)CC[C@H](NC(=O)CCCCCCCCCCCCC(=O)O)C(=O)O)NC(=O)[C@H](CCCN)NC(=O)[C@H](CC(=O)O)NC(=O)[C@H](CC(C)C)NC(=O)[C@](C)(CC(C)C)NC(=O)[C@@H](NC(=O)C(C)(C)NC(=O)[C@@H](NC(=O)[C@H](CC(=O)O)NC(=O)[C@H](CO)NC(=O)[C@@H](NC(=O)[C@](C)(Cc1ccccc1F)NC(=O)[C@@H](NC(=O)CNC(=O)[C@H](CCC(=O)O)NC(=O)C(C)(C)NC(=O)[C@@H](N)Cc1ccc(O)cc1)[C@@H](C)O)[C@@H](C)O)C(C)C)[C@@H](C)CC)[C@@H](C)CC)C(=O)N[C@@H](CCCCNC(=O)COCCOCCNC(=O)COCCOCCNC(=O)CC[C@H](NC(=O)CCCCCCCCCCCCC(=O)O)C(=O)O)C(=O)NCC(=O)NCC(=O)N1CCC[C@H]1C(=O)N[C@@H](CO)C(=O)N[C@@H](CO)C(=O)NCC(=O)N[C@@H](C)C(=O)N1CCC[C@H]1C(=O)N1CCC[C@H]1C(=O)N1CCC[C@H]1C(=O)N[C@@H](CO)C(N)=O [Example 350]	73.5%	–	0.0288 nM	> 9950 nM	> 9950 nM	91.4%	0.202 nM	–	95.9%	–	–	–	–	–	–	–
CC[C@H](C)[C@H](NC(=O)[C@H](CC(C)C)NC(=O)[C@](C)(Cc1ccc(O)cc1)NC(=O)[C@@H](CCC(=O)O)NC(=O)[C@@H](NC(=O)[C@H](Cc1ccccc1)NC(=O)[C@H](CCCN)NC(=O)C(C)(C)NC(=O)[C@H](CCC(N)=O)NC(=O)[C@H](C)NC(=O)[C@H](CCCCNC(=O)COCCOCCNC(=O)COCCOCCNC(=O)CC[C@H](NC(=O)CCCCCCCCCOc1ccc(C(=O)O)cc1)C(=O)O)NC(=O)[C@H](CCCN)NC(=O)[C@H](CC(=O)O)NC(=O)[C@H](CC(C)C)NC(=O)[C@](C)(CC(C)C)NC(=O)[C@@H](NC(=O)C(C)(C)NC(=O)[C@H](Cc1ccc(O)cc1)NC(=O)[C@H](CC(=O)O)NC(=O)[C@H](CO)NC(=O)[C@@H](NC(=O)[C@](C)(Cc1ccccc1F)NC(=O)[C@@H](NC(=O)CNC(=O)[C@H](CCC(=O)O)NC(=O)C(C)(C)NC(=O)[C@@H](N)Cc1ccc(O)cc1)[C@@H](C)O)[C@@H](C)O)[C@@H](C)CC)[C@@H](C)CC)C(=O)N[C@@H](CCCCNC(=O)COCCOCCNC(=O)COCCOCCNC(=O)CC[C@H](NC(=O)CCCCCCCCCOc1ccc(C(=O)O)cc1)C(=O)O)C(=O)NCC(=O)NCC(=O)N1CCC[C@H]1C(=O)N[C@@H](CO)C(=O)N[C@@H](CO)C(=O)NCC(=O)N[C@@H](C)C(=O)N1CCC[C@H]1C(=O)N1CCC[C@H]1C(=O)N1CCC[C@H]1C(=O)N[C@@H](CO)C(N)=O [Example 352] (H-Y[Aib]EGT[αMePhe(2-F)]TSDY[Aib]I[αMeL]LD[Orn]K([AEEA-AEEA-γGlu-Decanoyl(10-(4-HOOC-PhO))])AQ[Aib][Orn]FI[dE][αMeY]LIK([AEEA-AEEA-γGlu-Decanoyl(10-(4-HOOC-PhO))])GGPSSGAPPPS-NH2)	–	–	–	–	–	–	–	–	–	71.3%	98.3%	0.0106 nM	> 9950 nM	> 9950 nM	93.5%	0.262 nM
